Assay results published in patent US9586951B2 (FUJIFILM Corporation, priority 2013, dated 2017).

Key:
ATM = target: T1, ATM (Homo sapiens, UniProt Q13315); test: ATM inhibition test (phosphorylation of Chk2 generated by ionizing radiation, AlphaScreen SureFire); assay type: cell-based; conditions: phosphorylated Chk2 in NCI-H460 cells, ionizing radiation 8Gy, 1 hour after test compound treatment; read-out: ATM inhibitory activity
T1 construct: detecting phosphorylation of Chk2 in a human non-small cell lung cancer cell line NCI-H460 (ATCC company); host or cells: NCI-H460 human non-small cell lung cancer cells
T1 sequence (Q13315 whole entry): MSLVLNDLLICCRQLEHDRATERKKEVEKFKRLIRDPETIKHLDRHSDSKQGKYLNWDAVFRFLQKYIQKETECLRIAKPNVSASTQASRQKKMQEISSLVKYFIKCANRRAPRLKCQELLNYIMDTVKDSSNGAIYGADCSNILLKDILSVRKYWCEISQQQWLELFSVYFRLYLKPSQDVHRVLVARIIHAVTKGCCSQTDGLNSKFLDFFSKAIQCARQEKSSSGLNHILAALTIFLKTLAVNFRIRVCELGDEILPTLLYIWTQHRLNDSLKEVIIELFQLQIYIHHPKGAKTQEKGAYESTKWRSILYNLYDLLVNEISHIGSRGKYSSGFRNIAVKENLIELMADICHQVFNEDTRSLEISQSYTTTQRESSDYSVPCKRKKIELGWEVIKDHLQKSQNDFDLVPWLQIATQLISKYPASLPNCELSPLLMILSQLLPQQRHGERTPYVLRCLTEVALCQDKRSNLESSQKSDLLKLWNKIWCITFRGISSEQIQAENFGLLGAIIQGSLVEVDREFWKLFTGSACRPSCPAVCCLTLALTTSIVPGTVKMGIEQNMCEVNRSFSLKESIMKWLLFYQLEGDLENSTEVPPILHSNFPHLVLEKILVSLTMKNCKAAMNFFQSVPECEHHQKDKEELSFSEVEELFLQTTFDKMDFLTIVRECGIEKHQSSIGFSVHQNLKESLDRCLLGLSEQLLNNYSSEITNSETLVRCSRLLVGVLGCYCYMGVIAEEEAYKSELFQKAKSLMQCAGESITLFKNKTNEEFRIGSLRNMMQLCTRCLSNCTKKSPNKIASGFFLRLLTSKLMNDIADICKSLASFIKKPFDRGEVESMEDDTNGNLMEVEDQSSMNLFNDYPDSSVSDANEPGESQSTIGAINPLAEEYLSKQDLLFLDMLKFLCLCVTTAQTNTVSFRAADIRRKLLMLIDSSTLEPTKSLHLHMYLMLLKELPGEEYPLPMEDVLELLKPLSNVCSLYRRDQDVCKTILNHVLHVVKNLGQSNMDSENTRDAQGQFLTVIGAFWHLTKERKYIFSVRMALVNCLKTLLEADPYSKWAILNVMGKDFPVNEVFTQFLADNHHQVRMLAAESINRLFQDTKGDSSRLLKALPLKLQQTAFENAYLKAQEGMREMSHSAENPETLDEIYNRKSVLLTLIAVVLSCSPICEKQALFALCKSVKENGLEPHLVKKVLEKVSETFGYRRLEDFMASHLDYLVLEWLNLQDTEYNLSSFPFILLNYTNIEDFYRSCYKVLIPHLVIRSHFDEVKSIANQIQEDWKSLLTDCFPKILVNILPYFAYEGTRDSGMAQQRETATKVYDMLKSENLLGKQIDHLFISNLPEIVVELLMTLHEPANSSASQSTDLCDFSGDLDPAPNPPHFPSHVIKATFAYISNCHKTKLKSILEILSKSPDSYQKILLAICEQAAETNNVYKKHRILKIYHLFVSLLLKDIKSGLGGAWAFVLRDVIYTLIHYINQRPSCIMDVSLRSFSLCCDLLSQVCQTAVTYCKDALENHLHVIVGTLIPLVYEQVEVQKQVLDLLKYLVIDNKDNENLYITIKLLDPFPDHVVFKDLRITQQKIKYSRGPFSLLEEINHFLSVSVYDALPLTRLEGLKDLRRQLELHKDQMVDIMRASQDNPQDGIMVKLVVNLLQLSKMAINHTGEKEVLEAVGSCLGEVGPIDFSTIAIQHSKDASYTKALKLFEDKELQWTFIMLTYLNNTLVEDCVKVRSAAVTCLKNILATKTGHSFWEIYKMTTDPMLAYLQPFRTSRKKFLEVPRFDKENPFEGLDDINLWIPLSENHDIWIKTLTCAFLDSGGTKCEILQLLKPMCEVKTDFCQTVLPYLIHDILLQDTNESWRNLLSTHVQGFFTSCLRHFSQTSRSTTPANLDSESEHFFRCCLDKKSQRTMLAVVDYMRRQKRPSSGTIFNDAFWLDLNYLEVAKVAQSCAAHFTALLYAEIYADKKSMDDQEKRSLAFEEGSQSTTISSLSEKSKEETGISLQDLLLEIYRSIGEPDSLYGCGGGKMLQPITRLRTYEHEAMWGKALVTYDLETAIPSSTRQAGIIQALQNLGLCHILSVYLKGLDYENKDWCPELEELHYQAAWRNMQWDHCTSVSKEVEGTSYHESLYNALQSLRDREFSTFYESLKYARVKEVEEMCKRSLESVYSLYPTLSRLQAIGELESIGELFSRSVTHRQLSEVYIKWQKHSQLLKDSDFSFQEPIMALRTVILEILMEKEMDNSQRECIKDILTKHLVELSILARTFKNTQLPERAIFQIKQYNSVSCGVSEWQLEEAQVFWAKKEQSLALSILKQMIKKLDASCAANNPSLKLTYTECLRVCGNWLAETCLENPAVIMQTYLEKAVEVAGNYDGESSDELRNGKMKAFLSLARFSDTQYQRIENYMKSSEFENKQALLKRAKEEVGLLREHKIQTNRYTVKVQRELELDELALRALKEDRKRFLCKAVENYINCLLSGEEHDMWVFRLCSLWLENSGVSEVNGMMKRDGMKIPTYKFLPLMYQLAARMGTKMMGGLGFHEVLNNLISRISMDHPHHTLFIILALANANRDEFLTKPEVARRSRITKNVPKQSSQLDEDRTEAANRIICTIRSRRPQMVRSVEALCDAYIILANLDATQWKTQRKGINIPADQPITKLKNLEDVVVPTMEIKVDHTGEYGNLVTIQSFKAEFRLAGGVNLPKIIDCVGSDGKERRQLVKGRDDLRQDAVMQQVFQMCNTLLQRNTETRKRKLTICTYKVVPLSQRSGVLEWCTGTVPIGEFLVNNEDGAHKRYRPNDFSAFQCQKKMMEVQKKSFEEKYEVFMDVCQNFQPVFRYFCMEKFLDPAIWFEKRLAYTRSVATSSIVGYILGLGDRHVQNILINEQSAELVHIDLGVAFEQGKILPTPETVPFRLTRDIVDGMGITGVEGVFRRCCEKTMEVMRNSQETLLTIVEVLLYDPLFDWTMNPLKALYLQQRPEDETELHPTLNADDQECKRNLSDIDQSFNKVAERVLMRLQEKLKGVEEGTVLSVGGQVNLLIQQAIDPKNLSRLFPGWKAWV
Summary of the method: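 NCI-H460 cells, compound 1 h pre-treatment, 8Gy IR, further 1 h at 37° C in 5% CO2. Read-out: phospho-Chk2 via AlphaScreen SureFire. % inhibition relative to IR-induced signal window (irradiated vs non-irradiated drug-free wells).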

[1] = system: human non-small cell lung cancer cell line NCI-H460; test: Cell proliferation inhibition test by sensitivity-enhancing to ionizing radiation (Cell Titer Glo); assay type: cell-based; conditions: concentration in which SER became 2, NCI-H460 cells, ionizing radiation 2 Gy, cultured 120 hour; for SER2 (concentration at which the radiation sensitivity-enhancement ratio reaches 2): Homo sapiens, NCI-H460, 120 h
Protocol: A human non-small cell lung cancer cell line NCI-H460 (ATCC company) was adjusted so as to be 2×10^3 cells/mL in a RPMI-1640 medium containing penicillin/streptomycin and FBS having a final concentration of 10%, and this was seeded by 100 μL per well in 96-well CellBIND® plates (Corning International Inc.). After 24 hours, the medium of cells was replaced with 100 μL of a medium including serially diluted liquid of the test compound or DMSO having a final concentration of 0.1%. 30 minutes after the medium was replaced, half of the plates were irradiated with ionizing radiation 2 Gy (Faxitron Bioptics, LLC, RX-650 type). The cells of the plates irradiated with ionizing radiation and the plates not being irradiated with ionizing radiation were cultured at 37° C. for 120 hour in 5% CO2. After a Cell Titer Glo reaction liquid of an equal volume was added to each well, the amount of luminescence was measured, according to the instruction book of Cell Titer Glo (Promega Corporation). Since the amount of luminescence is proportional to the ATP concentration in cells, the amount of luminescence was used as an indicator of the number of viable cells. Sensitivity-enhancing effects (SER) to ionizing radiation by the test compound was calculated by the following equation. SER=(amount of luminescence of wells including DMSO having a final concentration of 0.1% in the plates irradiated with ionizing radiation×amount of luminescence of wells including a compound in the plates not being irradiated with ionizing radiation)/(amount of luminescence of wells including the test compound in the plates irradiated with ionizing radiation×amount of luminescence of wells including DMSO having a final concentration of 0.1% in the plates not being irradiated with ionizing radiation)
SER at each compound concentration was plotted by nonlinear regression fit (FitModel (205)) by a sigmoidal dose-response equation using XLfit software (IDBS), and the concentration (SER2) in which SER became 2 was calculated.

SMILES | IC50 (ATM) | SER2 (concentration at which the radiation sensitivity-enhancement ratio reaches 2) [1] | IC50 ([1]; read-out: SER2)
O=c1cc(N2CCOCC2)cc(-c2cccc3c2Oc2ccc(NCc4cncc(Cl)n4)cc2C3)[nH]1 [Example 2-13-1, 6-(7-(((6-chloropyrazin-2-yl)methyl)amino)-9H-xanthen-4-yl)-4-morpholinopyridin-2(1H)-one] | 100 to 500 nM | 500 to 2000 nM | –
O=c1cc(N2CCOCC2)cc(-c2cccc3c2Sc2ccc(NCc4ccnc(Cl)c4)cc2S3)[nH]1 [Example 1-12-18] | < 100 nM | – | 100 to 500 nM
COc1ncc(CNc2ccc3c(c2)Cc2cccc(-c4cc(N5CCOCC5)cc(=O)[nH]4)c2O3)cc1F [Example 2-2-18, 6-(7-(((5-Fluoro-6-methoxypyridin-3-yl)methyl)amino)-9H-xanthen-4-yl)-4-morpholino pyridin-2(1H)-one] | 100 to 500 nM | 500 to 2000 nM | –
CNc1ccc(CNc2ccc3c(c2)Sc2cccc(-c4cc(N5CCOCC5)cc(=O)[nH]4)c2O3)cn1 [Example 4-4-6, 6-(8-(((6-(Methylamino)pyridin-3-yl)methyl)amino)phenoxathiin-4-yl)-4-morpholino pyridin-2(1H)-one] | < 100 nM | 500 to 2000 nM | –
COC[C@H](CN1CCOC(C)(C)C1)Nc1ccc2c(c1)Sc1cccc(-c3cc(N4CCOCC4)cc(=O)[nH]3)c1S2 [Example 1-46-9, (S)-6-(7-((1-(2,2-Dimethylmorpholino)-3-methoxypropan-2-yl)amino)thianthren-1-yl)-4-morpholino pyridin-2(1H)-one] | < 100 nM | 100 to 500 nM | –
CCOc1cncc(CNc2ccc3c(c2)Cc2cccc(-c4cc(N5CCOCC5)cc(=O)[nH]4)c2O3)c1 [Example 2-2-48, 6-(7-(((5-Ethoxypyridin-3-yl)methyl)amino)-9H-xanthen-4-yl)-4-morpholino pyridin-2(1H)-one] | < 100 nM | 500 to 2000 nM | –
Cc1cnc(C(C)Nc2ccc3c(c2)Cc2cccc(-c4cc(N5CCOCC5)cc(=O)[nH]4)c2O3)nc1 (stereo not drawn) [Example 2-14-80, 6-(7-((1-(5-Methylpyrimidin-2-yl)ethyl)amino)-9H-xanthen-4-yl)-4-morpholino pyridin-2 (1H)-one] | < 100 nM | 100 to 500 nM | –
O=c1cc(N2CCOCC2)cc(-c2cccc3c2Sc2ccc(NCCN4CC5(COC5)C4)cc2S3)[nH]1 [Example 1-16-3, 6-(7-((2-(2-Oxa-6-azaspiro[3.3]heptan-6-yl)ethyl)amino)thianthren-1-yl)-4-morpholinopyridin-2(1H)-one] | < 100 nM | 100 to 500 nM | –
O=c1cc(N2CCOCC2)cc(-c2cccc3c2Oc2ccc(NCc4cccs4)cc2C3)[nH]1 [Example 2-13-6, 4-Morpholino-6-(7-((thiophen-2-ylmethyl)amino)-9H-xanthen-4-yl) pyridin-2(1H)-one] | < 100 nM | 500 to 2000 nM | –
O=c1cc(N2CCOCC2)cc(-c2cccc3c2Oc2ccc(NCc4ccc(Cl)s4)cc2C3)[nH]1 [Example 2-13-7, 6-(7-(((5-Chlorothiophen-2-yl)methyl)amino)-9H-xanthen-4-yl)-4-morpholino pyridin-2(1H)-one] | < 100 nM | 500 to 2000 nM | –

Continued, in another order:

IC50 (ATM) | SMILES | SER2 (concentration at which the radiation sensitivity-enhancement ratio reaches 2) [1] | IC50 ([1]; read-out: SER2)
< 100 nM | O=c1cc(N2CCOCC2)cc(-c2cccc3c2Oc2ccc(NCc4cncc(-n5cccc5)c4)cc2C3)[nH]1 [Example 2-2-58, 6-(7-(((5-(1H-Pyrrol-1-yl)pyridin-3-yl)methyl)amino)-9H-xanthen-4-yl)-4-morpholino pyridin-2(1H)-one] | 500 to 2000 nM | –
< 100 nM | Cc1ccnc(CNc2ccc3c(c2)Cc2cccc(-c4cc(N5CCOCC5)cc(=O)[nH]4)c2O3)c1 [Example 2-2-40, 6-(7-(((4-Methylpyridin-2-yl)methyl)amino)-9H-xanthen-4-yl)-4-morpholino pyridin-2(1H)-one] | 100 to 500 nM | –
< 100 nM | COc1cccc(C(CO)Nc2ccc3c(c2)Sc2cccc(-c4cc(N5CCOCC5)cc(=O)[nH]4)c2S3)n1 (stereo not drawn) [Example 1-12-132, 6-(7-((2-Hydroxy-1-(6-methoxypyridin-2-yl)ethyl)amino)thianthren-1-yl)-4-morpholino pyridin-2(1H)-one] | 100 to 500 nM | –
< 100 nM | COCC(CN1CCOCC1)Nc1ccc2c(c1)Sc1cccc(-c3cc(N4CCOCC4)cc(=O)[nH]3)c1S2 (racemic) [Example 1-17-1-1, 6-(7-((1-Methoxy-3-morpholinopropan-2-yl)amino)thianthren-1-yl)-4-morpholinopyridin-2(1H)-one] | < 100 nM | –
< 100 nM | CC(CN1CCN(c2ccccc2)CC1)Nc1ccc2c(c1)Sc1cccc(-c3cc(N4CCOCC4)cc(=O)[nH]3)c1S2 (stereo not drawn) [Example 1-13-15, 4-Morpholino-6-(7-((1-(4-phenylpiperazin-1-yl)propan-2-yl)amino)thianthren-1-yl)pyridin-2 (1H)-one] | 100 to 500 nM | –
< 100 nM | CC(Nc1ccc2c(c1)Sc1cccc(-c3cc(N4CCOCC4)cc(=O)[nH]3)c1S2)c1cnccn1 (stereo not drawn) [Example 1-12-63, 4-Morpholino-6-(7-((1-(pyrazin-2-yl)ethyl)amino)thianthren-1-yl)pyridin-2 (1H)-one] | 100 to 500 nM | –
< 100 nM | O=c1cc(N2CCOCC2)cc(-c2cccc3c2Sc2ccc(NC4CCN(C5CC5)CC4)cc2S3)[nH]1 [Example 1-24-18, 6-(7-((1-Cyclopropylpiperidin-4-yl)amino)thianthren-1-yl)-4-morpholino pyridin-2(1H)-one] | 100 to 500 nM | –
< 100 nM | Cc1ccc(C(CCC2OCCCO2)Nc2ccc3c(c2)Sc2cccc(-c4cc(N5CCOCC5)cc(=O)[nH]4)c2S3)nc1 (stereo not drawn) [Example 1-12-131, 6-(7-((3-(1,3-Dioxan-2-yl)-1-(5-methylpyridin-2-yl)propyl)amino)thianthren-1-yl)-4-morpholino pyridin-2 (1H)-one] | 100 to 500 nM | –
< 100 nM | COc1ccnc(C(C)Nc2ccc3c(c2)Sc2cccc(-c4cc(N5CCOCC5)cc(=O)[nH]4)c2S3)n1 (stereo not drawn) [Example 1-12-77, 6-(7-((1-(4-Methoxypyrimidin-2-yl)ethyl)amino)thianthren-1-yl)-4-morpholino pyridin-2(1H)-one] | 100 to 500 nM | –
< 100 nM | COc1ccnc(CNc2ccc3c(c2)Sc2cccc(-c4cc(N5CCOCC5)cc(=O)[nH]4)c2O3)c1 [Example 4-8-8, 6-(8-(((4-Methoxypyridin-2-yl)methyl)amino)phenoxathiin-4-yl)-4-morpholino pyridin-2 (1H)-one] | 100 to 500 nM | –
< 100 nM | Cc1ccnc(C(CF)Nc2ccc3c(c2)Sc2cccc(-c4cc(N5CCOCC5)cc(=O)[nH]4)c2S3)n1 (stereo not drawn) [Example 1-12-89, 6-(7-((2-Fluoro-1-(4-methylpyrimidin-2-yl)ethyl)amino)thianthren-1-yl)-4-morpholino pyridin-2(1H)-one] | 100 to 500 nM | –
< 100 nM | O=c1cc(N2CCOCC2)cc(-c2cccc3c2Oc2ccc(NCc4cncc(-n5cccc5)c4)cc2S3)[nH]1 [Example 4-4-8, 6-(8-(((5-(1H-Pyrrol-1-yl)pyridin-3-yl)methyl)amino)phenoxathiin-4-yl)-4-morpholino pyridin-2(1H)-one] | 100 to 500 nM | –
< 100 nM | Cc1ccc(CNc2ccc3c(c2)Sc2cccc(-c4cc(N5CCOCC5)cc(=O)[nH]4)c2S3)cn1 [Example 1-12-15, 6-(7-(((6-Methylpyridin-3-yl)methyl)amino)thianthren-1-yl)-4-morpholino pyridin-2 (1H)-one] | 100 to 500 nM | –
< 100 nM | Cc1cccc(C(C)Nc2ccc3c(c2)Sc2cccc(-c4cc(N5CCOCC5)cc(=O)[nH]4)c2S3)n1 (single isomer, unassigned) [Example 1-12-136-1, 6-(7-((1-(6-methylpyridin-2-yl)ethyl)amino)thianthren-1-yl)-4-morpholinopyridin-2(1H)-one] | < 100 nM | –
